Test results reported in ChEMBL document CHEMBL1136445, “Inhibitory effects on mitochondrial complex I of semisynthetic mono-tetrahydrofuran acetogenin derivatives” (Bioorg Med Chem Lett, 2003).

Tests used:
[1] = target: Mitochondrial complex I; NADH oxidoreductase (Bos taurus, UniProt P25708+P52505); assay: Inhibitory activity against NADH oxidase in beef heart mitochondrial complex I.; assay type: protein-complex assay
[2] = target: Mitochondrial complex I; NADH oxidoreductase (Bos taurus) (UniProt P25708+P52505); assay: Inhibitory potency against NADH oxidase with respect to compound 2c; assay type: protein-complex assay
[3] = Inhibitory activity against NADH/DH oxidoreductase in beef heart mitochondrial complex I.; set-up: species or system Bos taurus
Bos taurus = species: Bos taurus; assay: Inhibitory potency against NADH/DH oxidoreductase with respect to rotenone

Chain of Mitochondrial complex I; NADH oxidoreductase (P25708 21-464 limits assumed, other chains not shown): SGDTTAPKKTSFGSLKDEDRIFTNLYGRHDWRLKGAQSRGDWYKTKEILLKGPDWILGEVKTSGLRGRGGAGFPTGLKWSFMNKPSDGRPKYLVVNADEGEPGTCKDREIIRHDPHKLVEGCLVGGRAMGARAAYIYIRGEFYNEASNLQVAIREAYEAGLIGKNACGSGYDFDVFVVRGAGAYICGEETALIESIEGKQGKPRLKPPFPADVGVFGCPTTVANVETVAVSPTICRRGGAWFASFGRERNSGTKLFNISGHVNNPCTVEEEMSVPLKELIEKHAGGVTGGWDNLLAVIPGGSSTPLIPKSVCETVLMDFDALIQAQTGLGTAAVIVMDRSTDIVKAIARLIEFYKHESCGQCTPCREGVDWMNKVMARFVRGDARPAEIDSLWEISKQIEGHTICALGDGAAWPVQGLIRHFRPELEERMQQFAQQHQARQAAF

Row | Structure (SMILES) | IC50 [1] [nM] | Relative potency [2] | IC50 [3] [nM] | Relative potency (Bos taurus)
1 | CCCCCCCCCCCC[C@H](O)[C@@H]1CC[C@@H]([C@@H](O)CCCC[C@@H](O)CCCCC[C@@H]2CC(C/C(C)=N/O)C(=O)O2)O1 (some centres not stated) | 1.9 | 2.7 | 8.7 | 0.37
2 | CCCCCCCCCCCC[C@H](O)[C@@H]1CC[C@@H]([C@@H](O)CCCC/C(CCCCC[C@@H](O)CC2=C[C@H](C)OC2=O)=N\O)O1 | 2.7 | 3.8 | 10.3 | 0.52
3 | CCCCCCCCCCCC[C@H](O)[C@@H]1CC[C@@H]([C@@H](O)CCCC[C@@H](O)CCCCC[C@@H]2CC(CC(C)O)C(=O)O2)O1 (some centres not stated) | 5.8 | 8.2 | 51 | 1.1
4 | CCCCCCCCCCCC[C@H](O)[C@@H]1CC[C@@H]([C@@H](O)CCCCC(=O)CCCCC[C@@H](O)CC2=C[C@H](C)OC2=O)O1 | 0.8 | 1.1 | 3.7 | 0.15
5 | CCCCCCCCCCCC[C@H](O)[C@@H]1CC[C@@H]([C@@H](O)CCCC[C@@H](O)CCCCC[C@@H](O)CC2C[C@H](C)OC2=O)O1 (some centres not stated) | 3.6 | 5.1 | 19.9 | 0.7
6 | CCCCCCCCCCCC[C@H](O)[C@@H]1CC[C@@H]([C@@H](O)CCCCC(=O)CCCCC[C@@H]2CC(CC(C)=O)C(=O)O2)O1 (some centres not stated) | 0.7 | 1 | 1.1 | 0.13
7 | CCCCCCCCCCCC[C@H](O)[C@@H]1CC[C@@H]([C@@H](O)CCCC[C@@H](O)CCCCC[C@@H](O)CC2=C[C@H](C)OC2=O)O1 | 2.3 | 3.2 | 26.1 | 0.62
8 | CCCCCCCCCCCC[C@H](O)[C@@H]1CC[C@@H]([C@@H](O)CCCC[C@@H](O)CCCCC[C@@H](O)CC2(O)C(=O)O[C@@H](C)C2O)O1 (some centres not stated) | 21.8 | 31.1 | 55.2 | 4.27
9 | CCCCCCCCCCCC[C@H](O)[C@@H]1CC[C@@H]([C@@H](O)CCCCC(CCCCC[C@@H](O)CC2=C[C@H](C)OC2=O)NCCc2ccc(OC)c(OCc3ccccc3)c2)O1 (some centres not stated) | > 150 |  | > 1200 | 
10 | CCCCCCCCCCCC[C@H](O)[C@@H]1CC[C@@H]([C@@H](O)CCCC[C@@H](O)CCCCC[C@@H]2CC(CC(C)=O)C(=O)O2)O1 (some centres not stated) | 3.3 | 4.7 | 14.6 | 0.64
11 | C=C(C)[C@H]1Cc2c(ccc3c2O[C@@H]2COc4cc(OC)c(OC)cc4[C@@H]2C3=O)O1 [ROTENONE] | 5.1 | 7.2 | 28.8 | 1
